Experimental data as given in patent US8436005B2, “Macrocyclic pyrimidine derivatives” (Abbott Laboratories, priority 2008, dated 2013).

Tested on: carrageenan-induced thermal hyperalgesia
Experiment: Acute model of carrageenan-induced thermal hyperalgesia (hotbox assay)
Type: in vivo
Conditions: 100 micromole/kg intraperitoneally, 90 minutes after carrageenan, tested 30 minutes after dosing
Protocol: To assess the effectiveness of representative compounds of the invention against acute model inflammatory pain, animals can be tested in an acute model of carrageenan-induced thermal hyperalgesia (see for example, Honore, et al. Behavioural Brain Research (2006) vol. 167 pp. 355-364; Porreca, et al. Journal of Pharmacology and Experimental Therapeutics (2006) vol. 318 pp. 195-205). Carrageenan is injected into the test paw of the animal, and after 90 minutes, the test drug is administered by intraperitoneal dosing; the effect on thermal hyperalgesia is assessed in a hotbox assay which is done 30 minutes after the intraperitoneal dosing of the test drug. The MPE (maximal percent effect) is reported by comparison to the control paw (not injected with carrageenan), MPE being expressed as 100 times the withdrawal latency of the carrageenan injected paw (in seconds) divided by the withdrawal latency of the control (not injected with carrageenan) paw.

Row | SMILES | MPE (maximal percent effect), withdrawal latency of carrageenan injected paw vs control paw [%]
1 | Nc1nc2c(c(N3C[C@H]4CCCN[C@H]4C3)n1)CCCCC2c1ccccc1 (stereo partly drawn) [Example 21, 9-phenyl-4-((4aR,7aR)-tetrahydro-1H-pyrrolo[3,4-b]pyridin-6(2H,7H,7aH)-yl)-6,7,8,9-tetrahydro-5H-cyclohepta[d]pyrimidin-2-amine] | 24
2 | Nc1nc2c(c(N3CCNCC3)n1)CCCCC2c1ccccc1 (centres unmarked) [Example 19, 9-phenyl-4-(piperazin-1-yl)-6,7,8,9-tetrahydro-5H-cyclohepta[d]pyrimidin-2-amine] | 26
